According to patent publication US20250051275A1, “PYRROLE DERIVATIVE OR PHARMACEUTICALLY OR SITOLOGICALLY ACCEPTABLE SALTS THEREOF, AND COMPOSITION FOR PREVENTION, AMELIORATION OR TREATMENT OF GASTROINTESTINAL DISORDERS COMPRISING SAME AS ACTIVE INGREDIENT” (HANA PHARM CO., LTD., priority 2021, published 2025):

Columns and labels:
[1] = Pharmacokinetics in rats according to deuterium substitution; format: in vivo; details: male rats, oral 10 mg/kg; for concentration at 0.5 h / concentration at 1 h / concentration at 2 h / concentration at 5 h / concentration at 8 h: Sprague-Dawley, rat, plasma, read-out: Blood concentration; for concentration at 0.5 h: 0.5 hr after administration; for concentration at 1 h: 1 hr after administration; for concentration at 2 h: 2 hr after administration; for concentration at 5 h: 5 hr after administration; for concentration at 8 h: 8 hr after administration
Procedure: In order to evaluate the impact on the deuterium substituent in terms of pharmacokinetics, the blood concentrations of Example 35 and Comparative Example 2 in rats were measured and compared. Six male rats (Sprague-Dawley Rats) were obtained, acclimatized, and then distributed into two groups with three rats per test group. As feed, irradiated solid feed was allowed to be freely consumed, and, as water, tap water disinfected with an ultraviolet sterilizer and micro-filtration device was placed in a polycarbonate drinking bottle and allowed to be freely consumed. Rats were raised in an animal breeding area maintained at a temperature of 23±3° C., with a relative humidity of 50±20%, a ventilation frequency of 10 to 15 times/hr, for a lighting time of 12 hours (lights on at 8 a.m. to lights off at 8 p.m.), and with an illuminance of 150 to 300 Lux.
Blood samples were obtained from the jugular vein at 0.5, 1, 2, 5, and 8 hours after drug administration, respectively. Blood samples were centrifuged (2 to 8° C., 3,200 g, 10 minutes) to obtain plasma. The amount of administered compound into the plasma sample was quantified by using LC-MS/MS.

[2] = test system: rats (Sprague-Dawley Rats); assay: Acute oral toxicity in rats; format: in vivo; details: female rats
From the text: An attempt was made to evaluate the acute toxicity of the compound of Example 7 on the fumarate form (Example 41). Twenty female rats (Sprague-Dawley Rats) were obtained, acclimatized, and distributed into a total of four groups, five rats per test group. As feed, irradiated solid feed was allowed to be freely consumed, and, as water, tap water disinfected with an ultraviolet sterilizer and micro-filtration device was placed in a polycarbonate drinking bottle and allowed to be freely consumed. Rats were raised in an animal breeding area maintained at a temperature of 23±3° C., with a relative humidity of 50±20%, a ventilation frequency of 10 to 15 times/hr, for a lighting time of 12 hours (lights on at 8 a.m. to lights off at 8 p.m.), and with an illuminance of 150 to 300 Lux. As the administration, oral administration, the clinically planned route, was selected for evaluation, and, as the administration dose, the highest dose was set at 600 mg/kg, referring to the results of vonoprazan.

SMILES	concentration at 0.5 h [1]	concentration at 1 h [1]	concentration at 2 h [1]	concentration at 5 h [1]	concentration at 8 h [1]	blood concentration level higher as compared to Comparative Example 2 ([1]; 0.5 hours after administration)	blood concentration level higher as compared to Comparative Example 2 ([1]; after 1 hour)	blood concentration level higher as compared to Comparative Example 2 ([1]; after 2 hours)	Survival rate (%) ([2]; single oral dose 50 mg/kg)	Survival rate (%) ([2]; single oral dose 200 mg/kg)	Survival rate (%) ([2]; single oral dose 400 mg/kg)	Survival rate (%) ([2]; single oral dose 600 mg/kg)
CNCc1cn(S(=O)(=O)c2cccnc2)c(-c2ccc(F)cc2F)c1OC [Comparative Example 2, reference compound]	59.7 ng/mL	116 ng/mL	83.8 ng/mL	12.8 ng/mL	5.1 ng/mL							
[2H]C([2H])([2H])NCc1cn(S(=O)(=O)c2cccnc2)c(-c2ccc(F)cc2F)c1OC [Example 35, N-((5-(2,4-difluorophenyl)-4-methoxy-1-(pyridin-3-ylsulfonyl)-1H-pyrrol-3-yl)methyl)methan-d3-amine]	302 ng/mL	254 ng/mL	199 ng/mL	22.6 ng/mL	4.8 ng/mL	5 times	at least 2 times	at least 2 times				
O=C(O)/C=C/C(=O)O.[2H]C([2H])([2H])NCc1cc(-c2ccccc2F)n(S(=O)(=O)c2ccc(F)cc2)c1 [Example 41, N-((5-(2-fluorophenyl)-1-((4-fluorophenyl)sulfonyl)-1H-pyrrol-3-yl)methyl)methane-d3-amine Fumarate]									100%	100%	100%	0%
